The results in this text go back to patent US20210007351A1 (priority 2018, published 2021).

The assay concerns Phytophthora infestans Genotype 13_A2. The format is cell-based. As to conditions: 0.5%, 1% and 2% (all concentrations) in CMA with 0.5% DMSO; 7 days and 14 days post inoculation; 23 °C.

As for `CC1(C)C2CCC1(C)C(O)C2O` (racemic) [(+/−)-exo,exo-2,3-Camphanediol], the “average mycelial extension into amended CMA agar (growth)” value is on record as “heavily reduced or absent altogether”.

As to `C=CCc1ccc(O)c(OC)c1` [Eugenol, eugenol], the “average mycelial extension into amended CMA agar (growth)” value was “heavily reduced or absent altogether”.
